As usually defined, the Ki is the equilibrium dissociation constant of an inhibitor or competing ligand from its target. Read a low Ki as tighter binding. Broadly, the melting point is the temperature, or range, at which the solid turns liquid.

Where a name gives a salt, the structure may show the parent alone.

Series [1] concerns the target human adenosine A2A receptors (Homo sapiens, UniProt P29274). Description: Binding affinities at hA2A receptors, displacement of [3H]-CGS 21680. As to conditions: displacement of radioligand [3H]-CGS 21680, in vitro. A general note: Displacement assays read how much labelled ligand stays bound in the presence of the test substance.
Another series concerns cataleptic responses. As to conditions: cited from earlier work.
The next series concerns Parkinsonian patients. The conditions noted are these: cited from earlier work.

human adenosine A2A receptors, sequence (P29274 whole entry): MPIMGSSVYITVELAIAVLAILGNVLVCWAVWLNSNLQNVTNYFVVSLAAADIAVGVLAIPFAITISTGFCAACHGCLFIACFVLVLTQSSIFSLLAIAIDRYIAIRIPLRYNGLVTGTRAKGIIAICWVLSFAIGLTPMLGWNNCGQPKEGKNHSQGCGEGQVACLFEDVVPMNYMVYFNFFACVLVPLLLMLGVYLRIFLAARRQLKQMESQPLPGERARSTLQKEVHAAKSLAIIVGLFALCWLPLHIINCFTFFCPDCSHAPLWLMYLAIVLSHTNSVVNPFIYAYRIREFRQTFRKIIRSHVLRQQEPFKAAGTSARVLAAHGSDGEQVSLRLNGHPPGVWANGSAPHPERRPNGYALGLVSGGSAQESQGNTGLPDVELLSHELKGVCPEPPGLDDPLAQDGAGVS

Take `O[C@H](c1cc(C(F)(F)F)nc2c(C(F)(F)F)cccc12)[C@@H]1CCCCN1Cc1ccccc1` [Example 9, (11R, 2′S)-α-(1-Benzyl-2-piperidinyl)-2,8-bis(trifluoromethyl)-4-quinolinemethanol]: the Ki in series [1] stood at 182 nM.
`O[C@@H](c1cc(C(F)(F)F)nc2ccccc12)[C@H]1CCCCN1` (racemic) [Example 39, (11S*, 2′R*)-α-(2-Piperidinyl)-2-trifluoromethyl-4-quinolinemethanol (Racemic)] yielded a Ki in series [1] of 404 nM.
The same measure, in the same setting: for `O[C@H](c1cc(C(F)(F)F)nc2c(C(F)(F)F)cccc12)[C@@H]1CCCCN1CCc1ccccc1` [Example 38, (11S, 2′R)-α-(1-Phenethyl-2-piperidinyl)-2,8-bis(trifluoromethyl)-4-quinolinemethanol] the value was 906 nM.
Take `CC(C)CNCC(O)c1cc(C(F)(F)F)nc2c(C(F)(F)F)cccc12` (stereo not drawn) [Example 25, α-Isobutylaminomethyl-2,8-bis(trifluoromethyl)-4-quinolinemethanol]: affinity in series [1] was put at a Ki of 1270 nM.
On to `CCCn1c(=O)c2c(nc(/C=C/c3ccc(OC)c(OC)c3)n2C)n(CCC)c1=O` [KF 17837, (E)-8-(3,4-dimethoxystyryl)-1,3-dipropyl-7-methylxanthine], for which, in the series with cataleptic responses (in vivo), the “anticataleptic effects of a subthreshold dose of L-DOPA plus benserazide” value is “potentiated”; the “catalepsy induced by haloperidol and reserpine” value is “reduced”. The “cataleptic responses induced by intracerebroventricular CGS 21680” value with cataleptic responses (oral administration) is listed as “significantly ameliorated”.
Compound `FC(F)(F)c1cc([C@H]2OCN3CCCC[C@H]23)c2cccc(C(F)(F)F)c2n1` [Example 13, (1R, 8aR)-1,5,6,7,8,8a-Hexahydro-1-(2,8-bis(trifluoromethyl)-4-quinolinyl)-3H-oxazolo[3,4-a]pyridine] had a Ki in series [1] of 192 nM.
In series [1], `O=C1CO[C@H](c2cc(C(F)(F)F)nc3c(C(F)(F)F)cccc23)[C@@H]2CCCCN12` [Example 14, (1R, 9aS)-1,3,4,6,7,8,9,9a-Octahydro-1-(2,8-bis(trifluoromethyl)-4-quinolinyl)-pyrido[2,1-c][1,4]oxazine-4-one] had an inhibition constant (Ki) of 1780 nM.
The compound `O[C@@H](c1cc(C(F)(F)F)nc2c(C(F)(F)F)cccc12)[C@@H]1CCCN1` [Example 45, (11S, 2′S)-α-(2-Pyrrolidinyl)-2,8-bis(trifluoromethyl)-4-quinolinemethanol Hydrochloride] returned an inhibition constant Ki in series [1] of 2060 nM.
In turn, `COC(CNCc1ccccc1)c1cc(C(F)(F)F)nc2c(C(F)(F)F)cccc12` (stereo not drawn) (as salt: hydrochloride) [Example 30, N-Benzyl-β-methoxy-2,8-bis(trifuoromethyl)-4-quinolineethanamine Hydrochloride] registered a melting point of 232 to 233 °C.
As to `OC1(c2cc(C(F)(F)F)nc3c(C(F)(F)F)cccc23)CNC1` [Example 31, 3-(2,8-Bis(Trifluoromethyl)-4-quinolinyl)-3-azetidinol], the melting point was 201 °C (dec.).
As for `OC(CN1CCCCC1)c1cc(C(F)(F)F)nc2c(C(F)(F)F)cccc12` (stereo not drawn) [Example 20, α-Piperidinomethyl-2,8-bis(trifluoromethyl)-4-quinolinemethanol], the melting point stood at 129.5 °C.
For the compound `CC(C)C[C@H](N)C(O)c1cc(C(F)(F)F)nc2c(C(F)(F)F)cccc12` (mixture of isomers) [Example 34, α-(-Amino-3-methylbutyl)-2,8-bis(trifluoromethyl)-4-quinolinemethanol], the affinity in series [1], expressed as Ki, was 1210 nM.
With `O[C@H](c1cc(C(F)(F)F)nc2c(C(F)(F)F)cccc12)[C@@H]1CCCN1` (as salt: hydrochloride) [Example 42, (11R, 2′S)-α-(2-pyrrolidinyl)-2,8-bis(trifuoromethyl)-4-quinolinemethanol Hydrochloride], the melting point is 230 °C (dec.).
In series [1], `FC(F)(F)c1cc([C@H]2OCCN3CCCC[C@@H]23)c2cccc(C(F)(F)F)c2n1` [Example 15, (1R, 9aS)-1,3,4,6,7,8,9,9a-Octahydrol-(2,8-bis(trifluoromethyl)-4-quinolinyl)-pyrido[2,1-c][1,4]oxazine] registered a Ki of 1170 nM.
As for `OC(CN1CCOCC1)c1cc(C(F)(F)F)nc2c(C(F)(F)F)cccc12` (stereo not drawn) [Example 18, α-Morpholinomethyl-2,8-bis(trifluoromethyl)-4-quinolinemethanol], the melting point was 129 to 130 °C.
In the case of `FC(F)(F)c1cc([C@H]2OCN3CCCC[C@@H]23)c2cccc(C(F)(F)F)c2n1` [Example 11, (1R, 8aS)-1,5,6,7,8,8a-Hexahydro-1-(2,8-bis(trifluoromethyl)-4-quinolinyl)-3H-oxazolo[3,4-a]pyridine], affinity in series [1] was put at a Ki of 63 nM.
For `Cc1cccc2c([C@@H](O)[C@@H]3CCCCN3)cc(O)nc12` (relative stereo), the melting point was 225 °C (dec.).
With `OC(CNc1ccccc1)c1cc(C(F)(F)F)nc2c(C(F)(F)F)cccc12` (stereo not drawn) [Example 23, α-Phenylaminomethyl-2,8-bis(trifluoromethyl)-4-quinolinemethanol], in series [1], the Ki was found to be 2730 nM.
In turn, `O[C@H](c1cc(C(F)(F)F)nc2c(C(F)(F)F)cccc12)[C@@H]1CCCN1` [Example 42, (11R, 2′S)-α-(2-pyrrolidinyl)-2,8-bis(trifuoromethyl)-4-quinolinemethanol Hydrochloride] displayed an inhibition constant (Ki) in series [1] of 462 nM. Against the preceding compound, the Ki is about 5.9-fold lower.
Compound `CC(C)(C)OC(=O)N1CCC[C@H]1[C@H](O)c1cc(C(F)(F)F)nc2c(C(F)(F)F)cccc12` [Example 43, (11R, 2′S)-α-(1-tert-Butoxycarbonyl-2-pyrrolidinyl)-2,8-bis(trifluoromethyl)-4-quinolinemethanol] yielded an inhibitory constant (Ki) in series [1] of 2720 nM. This Ki is about 5.9-fold higher than that of the compound before.
On the same count and under the same terms, for `CO[C@H](c1cc(C(F)(F)F)nc2c(C(F)(F)F)cccc12)[C@@H]1CCCCN1` [Example 32, (1′R, 2S)-2-(α-Methoxy-2,8-bis(trifluoromethyl)-4-quinolinemethyl)piperidine Hydrochloride] the value was 226 nM.
`CN1CCCC[C@H]1[C@H](O)c1cc(C(F)(F)F)nc2c(C(F)(F)F)cccc12` [Example 7, (11R, 2′S)-α-(1-Methyl-2-piperidinyl)-2,8-bis(trifluoromethyl)-4-quinolinemethanol]: in series [1], the Ki was determined as 45 nM.
In turn, `OC(CNCc1ccccc1)c1cc(C(F)(F)F)nc2c(C(F)(F)F)cccc12` (stereo not drawn) [Example 24, α-Benzylaminomethyl-2,8-bis(trifluoromethyl)-4-quinolinemethanol] showed a Ki in series [1] of 2450 nM.
For the compound `CC(=O)N1CCCC[C@H]1[C@H](O)c1cc(C(F)(F)F)nc2c(C(F)(F)F)cccc12` [Example 5, (11R, 2′S)-α-(1-Acetyl-2-piperidinyl)-2,8-bis(trifluoromethyl)-4-quinolinemethanol], the Ki in series [1] worked out at 1740 nM.
For the compound `CNCC(O)c1cc(C(F)(F)F)nc2c(C(F)(F)F)cccc12` (stereo not drawn) [Example 22, α-Methylaminomethyl-2,8-bis(trifluoromethyl)-4-quinolinemethanol], affinity in series [1] was put at a Ki of 1500 nM.
Turning to `Nc1cc([C@@H](O)[C@@H]2CCCCN2)c2ccccc2n1` (relative stereo) (as salt: salt), the melting point is 225 °C (dec.).
The compound `CC[C@H](C)[C@H](N)[C@@H](O)c1cc(C(F)(F)F)nc2c(C(F)(F)F)cccc12` [Example 40, (11S, 1′S, 2′S)-α-(1-Amino-2-methyl-1-butyl)-2,8-bis(trifluoromethyl)-4-quinolinemethanol Hydrochloride] returned a Ki in series [1] of 609 nM.
In series [1], `OC(CNC1CCC1)c1cc(C(F)(F)F)nc2c(C(F)(F)F)cccc12` (stereo not drawn) [Example 26, α-Cyclobutylaminomethyl-2,8-bis(trifluoromethyl)-4-quinolinemethanol] registered a Ki of 2800 nM.
`O[C@@H](c1cc(C(F)(F)F)nc2c(C(F)(F)F)cccc12)[C@@H]1CCCN1` (as salt: hydrochloride) [Example 45, (11S, 2′S)-α-(2-Pyrrolidinyl)-2,8-bis(trifluoromethyl)-4-quinolinemethanol Hydrochloride]: the melting point was 246 °C (dec.).
On to `Cn1c(=O)c2[nH]cnc2n(C)c1=O` [Theophylline, 1,3-dimethylxanthine], for which, in the series on Parkinsonian patients (15 Parkinsonian patients, up to 12 weeks, 150 mg/day), the “mean objective disability scores” value was “significant improvements”. In the series with Parkinsonian patients (of 15 Parkinsonian patients, up to 12 weeks, 150 mg/day), the “patients reporting moderate or marked subjective improvement” value was 11. Also, the serum theophylline levels with Parkinsonian patients (slow release oral preparation 150 mg/day, after one week) is given as 4.44 mg/L.
Regarding `CO[C@H](c1cc(C(F)(F)F)nc2c(C(F)(F)F)cccc12)[C@@H]1CCCCN1C` [Example 8, (11R, 2′S)-4-(1-Methoxy-1-(1-methyl-2-piperidinyl)methyl)-2,8-bis(trifluoromethyl)quinoline], the Ki in series [1] was 419 nM. This lies in the sub-micromolar range.
As to `COc1cc([C@@H](O)[C@@H]2CCCCN2)c2cccc(C)c2n1` (racemic) [Example 48, (11R*, 2′S*)-2-Methoxy-8-methyl-α-(2-piperidinyl)-4-quinolinemethanol (Racemic)], the inhibition constant (Ki) in series [1] came out at 1100 nM.

These data come from US6608085B1, “4-quinolinemethanol derivatives as purine receptor antagonists (II)” (Vernalis Research Limited, priority 1998, dated 2003).
